This note sets out measurements from US20240285727A1, “NOVEL THERAPEUTIC PEPTIDES FOR NEURODEGENERATION” (UNIVERSITY OF SOUTHERN CALIFORNIA, priority 2021, published 2024).

Ends that are not written are not given here.

In experiment [1] the test system is SH-SY5Y cells. Put plainly: Seahorse assay (oxygen consumption rate). It is filed as cell-based. The method, then:
SH-SY5Y Cells were Plated into 96-Well Plates at a Density of 10,000 Cells. The following day, cells were differentiated for a total of 4 days. Thereafter, SHMOOSE or SHMOOSE.D47N were incubated for 24 hours, followed by cell real-time oxygen consumption rates measurements using XF96 Extracellular Flux Analyzer (Seahorse Bioscience). ATP turnover and maximum respiratory capacity were calculated after challenging cells with oligomycin and FCCP (carbonyl cyanide 4-[trifluoromethoxy]phenylhydrazone). Additionally, glycolytic rate was determined using extracellular acidification rate (ECAR) and individually reported relative to basal level in percentage. All readings were normalized to total DNA content using Hoechst 33342.

Another experiment deals with T1, mitofilin (Homo sapiens, UniProt Q16891).
T1 construct: purchased OriGene
T1 sequence (Q16891 34-758): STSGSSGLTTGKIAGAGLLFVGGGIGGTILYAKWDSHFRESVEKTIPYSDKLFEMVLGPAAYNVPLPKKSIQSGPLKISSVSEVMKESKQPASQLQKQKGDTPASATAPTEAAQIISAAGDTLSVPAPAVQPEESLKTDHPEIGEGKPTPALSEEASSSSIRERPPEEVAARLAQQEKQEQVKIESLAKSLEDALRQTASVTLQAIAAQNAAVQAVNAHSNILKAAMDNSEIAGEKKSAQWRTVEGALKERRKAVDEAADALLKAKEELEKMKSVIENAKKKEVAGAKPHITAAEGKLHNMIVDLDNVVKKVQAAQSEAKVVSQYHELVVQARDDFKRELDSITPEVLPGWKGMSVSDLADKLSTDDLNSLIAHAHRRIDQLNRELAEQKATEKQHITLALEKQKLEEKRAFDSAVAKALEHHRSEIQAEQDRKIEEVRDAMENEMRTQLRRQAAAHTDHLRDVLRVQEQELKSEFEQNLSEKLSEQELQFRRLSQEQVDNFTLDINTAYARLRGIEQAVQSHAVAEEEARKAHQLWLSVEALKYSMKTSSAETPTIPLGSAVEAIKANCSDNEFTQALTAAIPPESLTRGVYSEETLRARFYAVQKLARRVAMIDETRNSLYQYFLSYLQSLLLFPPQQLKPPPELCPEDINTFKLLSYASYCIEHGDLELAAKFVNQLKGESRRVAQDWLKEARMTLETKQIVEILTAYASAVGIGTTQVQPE
Put plainly: SHMOOSE-mitofilin protein interaction (co-immunoprecipitation, reciprocal dot blot). Type of experiment: binding. The following applies: reciprocal dot-based immunoblots, recombinant proteins. The method, then:
To identify the SHMOOSE interactome, multiple experiments were conducted. First, 1.5 nmol of SHMOOSE was spiked into 1 mg SH-SY5Y cell lysate for 6 hours at 4° C. Lysates were prepared using Thermo Pierce CoIP lysis buffer with 1× Thermo protease inhibitor cocktail and 1 mM PMSF. Briefly, cells were washed with ice-cold DPBS twice, lysed for 15 minutes on ice, and centrifuged for 10 minutes at 12,000 RCF at 4° C. The rationale for conducting this experiment was to ensure identical protein amounts between conditions and avoid differential protein expression caused by SHMOOSE treatment to cells. After 6 hours, SHMOOSE was immunoprecipitated from samples using Dynabeads A conjugated to 5 ug of custom c-terminus SHMOOSE antibody. As a negative control, SHMOOSE-spiked lysates were also immunoprecipitated using 5 ug rabbit IgG. Proteins were eluted from beads using 50 mM Glycine pH 2.8, and eluents were pH neutralized using Tris HCl pH 7.5. Complete eluents were then processed for protein identification using LC-MS. […] Statistical analysis of MaxQuant label-free quantitation data was performed with the artMS Bioconductor package, which performs the relative quantification of protein abundance using the MSstats Bioconductor package (default parameters). […]
Background: In western blotting, separated proteins are transferred to a membrane and probed.

The subject of experiment [2] is SH-SY5Y cells. Put plainly: Amyloid beta toxicity assay (LIVE/DEAD viability). Type of experiment: cell-based. To be noted: neuronal cells stressed with oligomerized amyloid beta 42 (1 uM); 10 uM peptide. The method, then: SH-SY5Y cells were differentiated for 4 days, incubated with 10 uM SHMOOSE or SHMOOSE.D47N for 24 hours followed by another incubation with SHMOOSE or SHMOOSE.D47N with or without oligomerized 1 uM amyloid beta 42 (CPC Scientific), prepared as formerly described. A two-color fluorescence cell viability assay (LIVE/DEAD Viability/Cytotoxicity Kit; Invitrogen (cat. L3224) was used to distinguish live cells from dead cells after […] and amyloid beta 42 treatment. The ratio of live to dead cells can be quantified since live cells retain the Calcein AM dye and dead cells with damaged membranes permit entry of the ethidium homodimer dye.

Turning to “MPPCLTTWLSQLLKDNSYPLVLGPKNFGATPNKSNNHAHYYNHPNPNFPNSPHPYHPR [SHMOOSE.D47N]”, in the experiment with SH-SY5Y cells [1], the “basal cell oxygen consumption rate (in words)” value is on record as “but not mutant SHMOOSE.D47N, boosts basal cell oxygen consumption rate”. For the same sequence, the mitochondrial spare capacity result in the experiment on SH-SY5Y cells [1] (after oligomycin and FCCP, 24 hours incubation) is recorded as “boosted mitochondrial spare capacity”. Moreover, the binding to mitofilin entry on mitofilin is given as “confirming binding”. Moreover, in the experiment with SH-SY5Y cells [2], the “protection against cell death” value was “did not similarly protect cells”.
